We go through two compounds from US6894068B2, “Substituted benzimidazoles as non-nucleoside inhibitors of reverse transcriptase” (The United States of America as represented by the …, priority 1997, dated 2005).

Experiment [1] has as its system HIV-1 isolate 4xAZT/L100I. The experiment is described as follows: Cytopathic cell killing assay, MT-4 cells, isolate 4xAZT/L100I. Particulars: Human immunodeficiency virus 1, MT4, read-out: EC50, isolate 4XAZT/L1001. It counts as cell-based. The method, then:
The various HIV isolates tested in the Figures are those corresponding to wild-type virus (NL4-3) and the other strains listed by their RT mutations. The three 4×AZT isolates included in the Figures represent AZT drug-resistant variants.
Briefly, in this method cells (e.g., the CEM-SS cell line, available from the NIAID AIDS Research and Reference Program [ARRRP]) were seeded at a density of 5×10^3 cells/well, into the wells of a 96-well microtiter plate. The cells were then infected with HIV virus (either mutant or WT), at a multiplicity of infection (MOI) previously determined to provide complete cell killing by 6 days of culture post-infection (e.g., MOI of 0.01-0.05). Each of the HIV isolates was pre-titered to induce equivalent levels of infection based on cell killing or virus production, prior to their use in these assays. A range of test compound concentrations was added to the wells in triplicate (e.g., serial half-log dilutions) to evaluate inhibition of HIV infection. Controls for each assay included drug controls (drug colorimetric control wells), drug cytotoxicity control wells (cells with drug), virus control wells (cells with virus), and cell viability controls (cells only). Positive control drugs (e.g. AZT and ddC) were also run in parallel.
(§1) After six days of incubation at 37° C., cell viability was determined spectrophotometrically at 450 nm for each well, using the metabolic reduction of XTT to a soluble colored formazan. (See, Gartner and Popovic, “Virus Isolation and Production, in Aldovini and Walker (eds.), Techniques in HIV Research, Stockton Press, NY, pp. […] [1991]; and Nara and Fischinger, “Quantitative Infectivity Assay for HIV-1 and HIV-2, ” Nature 332:469-470 [1988]).
The in vitro therapeutic index (TI50) was defined as the fold-difference between the EC50 and IC50.

The next experiment deals with HIV-1 isolate M184I. In words: Cytopathic cell killing assay, isolate M184I. Particulars: Human immunodeficiency virus 1, read-out: EC50, isolate M184I. The class given is cell-based. The text has this:
(§2) The various HIV isolates tested in the Figures are those corresponding to wild-type virus (NL4-3) and the other strains listed by their RT mutations. The three 4×AZT isolates included in the Figures represent AZT drug-resistant variants. For example, the 4×AZT/L100I isolate has five mutations: four mutations confer increased resistance to AZT, and the other mutation is located within the NNRTI binding pocket. TZB and nevir. (nevirapine) are two well-known NNRTIs, included in this experiment for comparison purposes.
In this Example, the antiviral and cellular toxicity of NNRTIs was investigated, using the cytopathic cell killing assay described by Yang (Yang et al., “Characteristics of a Group of Non-nucleoside Reverse Transcriptase Inhibitors with Structural Diversity and Potent Anti-Human Immunodeficiency Virus Activity,” Leukemia 9:S75-S85 [1995]). Briefly, in this method cells (e.g., the CEM-SS cell line, available from the NIAID AIDS Research and Reference Program [ARRRP]) were seeded at a density of 5×10^3 cells/well, into the wells of a 96-well microtiter plate. The cells were then infected with HIV virus (either mutant or WT), at a multiplicity of infection (MOI) previously determined to provide complete cell killing by 6 days of culture post-infection (e.g., MOI of 0.01-0.05). Each of the HIV isolates was pre-titered to induce equivalent levels of infection based on cell killing or virus production, prior to their use in these assays. A range of test compound concentrations was added to the wells in triplicate (e.g., serial half-log dilutions) to evaluate inhibition of HIV infection. […]
After six days of incubation at 37° C., cell viability was determined spectrophotometrically at 450 nm for each well, using the metabolic reduction of XTT to a soluble colored formazan. (See, Gartner and Popovic, “Virus Isolation and Production, in Aldovini and Walker (eds.), Techniques in HIV Research, Stockton Press, NY, pp. […] [1991]; and Nara and Fischinger, “Quantitative Infectivity Assay for HIV-1 and HIV-2, ” Nature 332:469-470 [1988]). […]

The next experiment concerns HIV-1 isolate K103N. In words: Cytopathic cell killing assay, MT-4 cells, isolate K103N. The class given is cell-based. The procedure, abridged:
(§3)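 5×10^3 cells/well; HIV-1 isolates pre-titered for equivalent infection, MOI ~0.01-0.05; compound half-log serial dilutions, triplicate; 6 d, 37° C; XTT read at 450 nm; uninfected cells with drug for cytotoxicity.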
Background: Protection from cytopathic effect is a common read-out in antiviral testing.

The subject of a further experiment is HIV-1 isolate K101E. The experiment is described as follows: Cytopathic cell killing assay, MT-4 cells, isolate K101E. It counts as cell-based. An outline of the steps:
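Infect seeded cells with HIV-1 at a pre-determined MOI, add compound over a half-log concentration range, incubate six days at 37° C, then measure XTT formazan at 450 nm. Parallel wells of cells with drug alone assessed cytotoxicity.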

The test system of the next experiment is HIV-1 isolate Y181C. The experiment is described as follows: Cytopathic cell killing assay, MT-4 cells, isolate Y181C. It counts as cell-based. An outline of the steps: as §3
Another experiment has as its system HIV-1 isolate Y188H. The experiment is described as follows: Cytopathic cell killing assay, isolate Y188H. It counts as cell-based. Particulars: Human immunodeficiency virus 1, read-out: EC50, isolate Y188H.
Description: as §2
In this Example, the antiviral and cellular toxicity of NNRTIs was investigated, using the cytopathic cell killing assay described by Yang (Yang et al., “Characteristics of a Group of Non-nucleoside Reverse Transcriptase Inhibitors with Structural Diversity and Potent Anti-Human Immunodeficiency Virus Activity,” Leukemia 9:S75-S85 [1995]). Briefly, in this method cells (e.g., the CEM-SS cell line, available from the NIAID AIDS Research and Reference Program [ARRRP]) were seeded at a density of 5×10^3 cells/well, into the wells of a 96-well microtiter plate. The cells were then infected with HIV virus (either mutant or WT), at a multiplicity of infection (MOI) previously determined to provide complete cell killing by 6 days of culture post-infection (e.g., MOI of 0.01-0.05). Each of the HIV isolates was pre-titered to induce equivalent levels of infection based on cell killing or virus production, prior to their use in these assays. A range of test compound concentrations was added to the wells in triplicate (e.g., serial half-log dilutions) to evaluate inhibition of HIV infection. Controls for each assay included drug controls (drug colorimetric control wells), drug cytotoxicity control wells (cells with drug), virus control wells (cells with virus), and cell viability controls (cells only). Positive control drugs (e.g. AZT and ddC) were also run in parallel.
as §1
The in vitro therapeutic index (TI50) was defined as the fold-difference between the EC50 and IC50. The results for the various compounds are included in FIGS. 8 and 19.

Another experiment addresses HIV-1 WT RT (Human immunodeficiency virus type 1 group M subtype B, UniProt P03366). The experiment is described as follows: biochemical. The class given is biochemical.
The mark [2] stands for this setting: Human immunodeficiency virus 1, MT4, read-out: EC50, isolate K103N, Table 8, MT-4 cells.
The mark [3] stands for this setting: Human immunodeficiency virus 1, MT4, read-out: EC50, isolate K101E, Table 8, MT-4 cells.
The mark [4] stands for this setting: Human immunodeficiency virus 1, MT4, read-out: EC50, isolate Y181C, Table 8, MT-4 cells.

Where two headings read alike, the source gives them in different places.

Consider `CCc1cccc2c1nc(-c1c(F)cccc1F)n2Cc1c(F)cccc1F` [Compound 4011, 1-(2,6-difluorobenzyl)-2-(2,6-difluorophenyl)-4-ethylbenzimidazole], for which the EC50 in experiment [1] was 0.6 µM; in the experiment with HIV-1 isolate M184I, 0.96 µM; with HIV-1 isolate K103N (setting [2]) it was above 20 µM; with HIV-1 isolate K103N (Human immunodeficiency virus 1, MT4, read-out: EC50, isolate K103N, Table 10, values in μM), above 50 µM; in the experiment on HIV-1 isolate K101E (setting [3]) it was above 20 µM; with HIV-1 isolate K101E (Human immunodeficiency virus 1, MT4, read-out: EC50, isolate K101E, Table 10, values in μM), above 50 µM. Moreover, the EC50 with HIV-1 isolate Y181C (setting [4]) is above 10 µM; with HIV-1 isolate Y181C (Human immunodeficiency virus 1, MT4, read-out: EC50, isolate Y181C, Table 10, values in μM), 7.18 µM; in the experiment with HIV-1 isolate Y188H it was 13.2 µM.
For the compound `Nc1cccc2c1nc(-c1c(F)cccc1F)n2Cc1c(F)cccc1F` [Compound 3300, 4-amino-1-(2,6-difluorobenzyl)-2-(2,6-difluorophenyl)benzimidazole], the EC50 in experiment [1] is 0.3 µM; in the experiment on HIV-1 isolate M184I, 0.65 µM; in the experiment on HIV-1 isolate K103N (setting [2]), above 20 µM; in the experiment on HIV-1 isolate K101E (setting [3]), above 20 µM; in the experiment with HIV-1 isolate Y181C (setting [4]), 6 µM; in the experiment with HIV-1 isolate Y188H it was above 50 µM. For the same compound, it took 0.28 µM to reach half-maximal inhibition on HIV-1 WT RT (IC50). In addition, the inhibition at 1 µM on HIV-1 WT RT (Table 7, 1 μM drug, WT HIV-1 RT, read-out: % inhibn (1 μM)) was 69%.

The term IC50 denotes the concentration that gives 50% inhibition. Read a high IC50 as weaker potency.
